Patent US11730725B2 (Tesaro, Inc., priority 2017, dated 2023)
Like-named read-outs stand apart in the source and are kept apart here.

Assays:
[1] = drug substance, crystalline solid
[2] = test system: platinum-sensitive recurrent epithelial ovarian, fallopian tube, or primary peritoneal cancer; details: niraparib vs placebo
Excerpt: All patients had received at least two prior platinum-containing regimens and were in response (complete or partial) to their most recent platinum-based regimen. Eligible patients were assigned to one of two cohorts based on the results of a germline BRCA mutation test. […] Randomization occurred within 8 weeks of the last dose of the most recent platinum-containing regimen. […] Clinic visits occurred each cycle (4 weeks±3 days). […] Prior to unblinding of the study, tumors of patients randomized to the non-gBRCAmut cohort were tested for the presence of homologous recombination deficiency (HRD) using the Myriad myChoice® HRD test, which evaluates three independent biomarkers of tumor genome instability: loss of heterozygosity, telomeric allelic imbalance, and large-scale state transitions. Tumors with homologous recombination deficiencies and those with somatic BRCA mutations were defined as HRD positive (HRDpos). The primary efficacy analysis for PFS was prospectively defined and assessed for the gBRCAmut cohort. The primary efficacy analysis for PFS was prospectively defined and assessed for the non-gBRCAmut cohort with a hierarchical testing schema. In the first step, PFS was assessed in the group of patients with HRDpos tumors and if significant, PFS was assessed in the overall non-gBRCAmut cohort. Secondary efficacy endpoints included chemotherapy-free interval (CFI), time to first subsequent therapy (TFST), PFS after the first subsequent therapy (PFS2), time to second subsequent therapy (TSST) and OS (overall survival).

tumor models [3] = test system: tumor models
tumor models [4] = experiment: animal or person; details: read-out: PARP inhibition

Row | SMILES | hygroscopicity [1] | CFI HR ([2]; gBRCAmut cohort) | TFST HR ([2]; gBRCAmut cohort) | CFI HR ([2]; non-gBRCAmut cohort) | TFST HR ([2]; non-gBRCAmut cohort) | tumor regression (tumor models [3]; 50 mg/kg, daily dosing) | tumor regression (tumor models [3]; dose of 75 mg/kg, same model) | tumor regression (tumor models [3]; dosing switched from 75 mg/kg to 50 mg/kg) | inhibition at 50 mg/kg (tumor models [4]) [%]
1 | Cc1ccc(S(=O)(=O)O)cc1.NC(=O)c1cccc2cn(-c3ccc([C@@H]4CCCNC4)cc3)nc12 [Niraparib tosylate monohydrate, 2-{4-[(3S)-piperidin-3-yl]phenyl}-2H-indazole 7-carboxamide 4-methylbenzenesulfonate hydrate (1:1:1)] | non-hygroscopic |  |  |  |  |  |  |  | 
2 | NC(=O)c1cccc2cn(-c3ccc([C@@H]4CCCNC4)cc3)nc12 [Niraparib] |  | 0.26 | 0.31 | 0.50 | 0.55 | tumor regression | did not result in tumor regression | tumor regression was achieved | > 90
